Results published in doi:10.1101/2025.07.11.664294 (bioRxiv, 2025).

Columns and labels:
MMP-2 [1] = assay: MMP-2 inhibition assay (Enzo MMP-2 drug discovery kit); format: biochemical, human; conditions: NNGH positive control
Protocol: The MMP-2 inhibition assay was performed using the Enzo Life Sciences MMP-2 drug discovery kit. and the quenched fluorogenic substrate OmniMMP RED. Reference substrate was diluted to a final concentration of 5 μM, while the MMP-2 enzyme was diluted to 58 mU/μL, and the N-Isobutyl-N-(4-methoxyphenylsulfonyl)glycyl hydroxamic acid (NNGH) inhibitor was diluted to a concentration of 1/200 in assay buffer. […] The assay was performed using a black 96-well microplate. Fluorescence was measured at excitation/emission wavelengths of 545/576 nm, with a cutoff at 570 nm using Gen5 microplate reader (BioTeK, Shoreline, WA). Baseline fluorescence was recorded before adding NNGH inhibitor which was used as a positive control for MMP-2 inhibition. Reaction mixtures in the plate were incubated at 37 °C for 10 min, and fluorescence was measured at 10 min intervals for the first 30 min, then at 30 min intervals until 2 h had elapsed. Percentage of inhibition of MMP-2 activity by Ctx and its analogs was calculated as percent of control. Statistical analysis was performed using ANOVA with GraphPad Prism software, version 10.0.3.

U87MG glioblastoma cells = assay: Wound-healing scratch assay; format: cell-based, human; conditions: 50 μM peptide, 24 h, mitomycin C 3 μg/ml; wound closure by ImageJ
Protocol: The U87MG GBM cell line (U-87 MG, ATCC® HTB-14) was cultured in Dulbecco’s Modified Eagle Medium (DMEM) and appropriate growth factors at 37°C in a humidified 5% CO2 atmosphere. Cells were seeded at 40,000 cells per well in 96-well plates and allowed to adhere overnight. Then, mitomycin C (3 μg/ml) was added to inhibit further cell replication, and 50 μM Ctx and its analogs were added. Untreated wells served as a control. Wounds were created by manually scratching the cell monolayer with a 200 μL multi-channel pipette tip, and plates were analyzed at 0 h and 24 h time points using the MetaXpress image acquisition software (Molecular Devices, San Jose, CA). The ImageJ Ver. 1.54f program (NIH (National Institutes of Health) was used for image analysis. Wound closure was quantified using the Wound_Healing_Size_tool_plugin., analyzing the percentage of wound area covered by migrating cells. To determine significance, statistical analysis was performed using appropriate methods (t-test or ANOVA) using GraphPad Prism software, version 10.0.3.

recombinant MMP-2 = assay: Differential scanning fluorimetry (DSF); format: binding, human; conditions: 1 μM MMP-2, 30 μM (Ctx) or 50 μM (P75 and P76) peptide, PBS pH 7.1, SYPRO-orange, average and SD of n ≥ 3
Protocol: The melting temperatures (Tm) of recombinant MMP-2 and its complexes with peptides were ascertained using BioRad CFX384 Touch real-time PCR (Hercules, CA, USA). The experiments were performed as previously described. The unfolding of the protein was detected using the fluorescent SYPRO-orange dye (Invitrogen, Carlsbad, CA, USA). MMP-2 and prospective ligand peptides were dissolved in 7.1 pH phosphate buffered saline (154 mM NaCl, 5.6 mM Na2PO4, 1.1mM KH2PO4), and the reaction mixture was made to a final concentration of 1 μM of protein, either 30 μM (Ctx) or 50 μM (P75 and P76) of peptide, and 1000x dilution of the SYPRO-Orange dye stock from the manufacturer. Excitation and emission filters of the dye were set at 450–490 nm and 560–580 nm, respectively. The temperature for the reaction was held at 25 °C for 5 min, and then a gradient of 25 °C to 95 °C was applied at a rate of 0.3 °C/min, and the fluorescence was recorded. To determine Tm of the protein, the first derivatives of melting curves were plotted using GraphPad Prism software, version 10.0.3.

Neuropilin-1 (NRP-1) = biological target: T1, Neuropilin-1 (NRP-1) (Homo sapiens, UniProt O14786); assay: Surface plasmon resonance (SPR); format: binding; conditions: NRP-1 immobilized on NTA chip, steady-state affinity model, peptides 500 μM to 3.90 μM, n=3, 4 replicates, read-out: dissociation constant (KD) for NRP-1
T1 construct: containing amino acid residues Phe22-Lys644, with a poly-histidine tag at the C-terminus; purchased ACROBiosystems NR1-H5228
T1 sequence (O14786 22-644 isoform O14786-2): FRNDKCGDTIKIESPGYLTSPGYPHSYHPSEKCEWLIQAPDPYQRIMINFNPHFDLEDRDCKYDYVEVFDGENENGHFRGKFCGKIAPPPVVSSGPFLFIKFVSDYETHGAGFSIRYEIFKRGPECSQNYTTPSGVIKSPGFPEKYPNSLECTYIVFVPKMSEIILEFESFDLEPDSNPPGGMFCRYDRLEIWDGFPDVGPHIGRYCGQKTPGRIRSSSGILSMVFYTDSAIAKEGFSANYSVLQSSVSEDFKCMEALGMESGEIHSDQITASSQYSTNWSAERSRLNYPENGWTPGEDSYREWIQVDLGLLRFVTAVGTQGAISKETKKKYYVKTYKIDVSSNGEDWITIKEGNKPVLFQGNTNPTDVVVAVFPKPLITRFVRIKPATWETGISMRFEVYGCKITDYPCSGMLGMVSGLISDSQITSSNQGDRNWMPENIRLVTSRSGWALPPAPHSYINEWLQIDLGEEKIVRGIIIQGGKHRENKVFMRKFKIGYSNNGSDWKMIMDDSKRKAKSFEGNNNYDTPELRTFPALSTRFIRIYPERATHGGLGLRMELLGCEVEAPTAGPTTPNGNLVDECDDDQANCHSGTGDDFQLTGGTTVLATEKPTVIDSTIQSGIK
Protocol: (§1) Surface plasmon resonance (SPR) reagents, plates, and the NTA chip were purchased from GE Healthcare Life Sciences, now Cytiva (Marlborough, MA, USA). Measurements were performed using the Biacore 8000 SPR System (Marlborough, MA. USA). The running buffer used for protein immobilization and peptide binding consisted of 20 mM Tris, 150 mM NaCl, […] and 0.0005% Tween-20, adjusted to pH 7.4. MMP-2 and NRP-1 were immobilized onto the NTA chip at 15 nM and 25 nM concentration, respectively. Peptides were injected over the immobilized proteins using two-fold serial dilutions from 500 μM to 3.90 μM. Three experiments with four replicates of each were performed. The SPR response curves generated from the Biacore Insight Evaluation Software were fitted to a steady-state affinity model to obtain an equilibrium dissociation constant (KD) for each peptide — protein interaction.

MMP-2 [2] = assay: Surface plasmon resonance (SPR); format: binding, human; conditions: MMP-2 immobilized on NTA chip; peptides 500 μM to 3.90 μM; pH 7.4
Protocol: as §1

[3] = peptides at 1 μM, 50 μM and 100 μM, quenched fluorogenic substrate, one-way ANOVA

Substance	inhibition of MMP-2 enzymatic activity (MMP-2 [1]; [3])	inhibition of U-87MG cell migration (U87MG glioblastoma cells)	Change in melting temperature ΔTm ± SD (recombinant MMP-2)	Kd (Neuropilin-1 (NRP-1))	inhibition of MMP-2 enzymatic activity (MMP-2 [1]; Ctx at 1 μM, 5 μM, 10 μM, 15 μM and 20 μM, quenched fluorogenic substrate OmniMMP RED)	binding to MMP-2 by SPR (MMP-2 [2])
Ac-[Cyc(28,33)]Ctx(27-34)-NH2 [Peptide P78]	not statistically significant	about 30%	–	–	–	–
Ac-[Cys^26,Ser^28,33,Cyc(26,35)]Ctx(24-36)-NH2 [Peptide P76]	not statistically significant	–	0.63 ± 0.36 °C	–	–	–
Ac-[Ser^35,Cyc(28,33)]Ctx(24-36)-NH2 [Peptide P75]	not statistically significant	Inhibition of U-87MG cell migration	0.76 ± 1.56 °C	330 ± 146 µM	–	–
Chlorotoxin [Ctx, reference compound]	not statistically significant	–	–	–	did not inhibit MMP-2 activity	did not bind
